These results are taken from patent US8592174B2, “Peptidase substrates” (bioMérieux, S.A., priority 2009, dated 2013).

What all share (format): cell-based
Series [1] deals with Forty-four strains of microorganisms. Kind of series: pH variation detection on modified chromID Coli medium (Example 6), all strains. Particulars: 50 mg/l; 24 h 37° C.; conclusion of Example 6. As for the experimental part:
The media were incubated for 24 hours at 37° C., then the spots formed were examined visually.

Series [2] concerns Enterococcus faecalis 0008192. The series is described as follows: Peptidase detection on Columbia medium (Example 5). Particulars: 75 mg/l, 48 h 37° C. The protocol: (§1) After homogenization, the media were distributed into Petri dishes 55 mm in diameter. A medium acting as a growth control (Columbia) and denoted C was also poured.
(§2) Twenty-two strains of microorganisms were inoculated with a 10 μl calibrated loop according to the three-quadrant streaking method using bacterial suspensions at 0.5 McFarland.

For series [3], the system named is Morganella morganii 9207053. The series is described as follows: Peptidase detection on Columbia medium (Example 5). Particulars: 75 mg/l, 48 h 37° C. As for the experimental part: as §1, §2
For series [4], the system named is Pseudomonas aeruginosa 0001001. Kind of series: Peptidase detection on Columbia medium (Example 5). Particulars: 75 mg/l, 48 h 37° C. The protocol: as §1, §2
Series [5] deals with Burkholderia cepacia 7507032. Kind of series: Peptidase detection on Columbia medium (Example 5). Particulars: 75 mg/l, 48 h 37° C. The protocol:
as §1, §2

Series [6] has as its system Listeria monocytogenes 8812049. Kind of series: Peptidase detection on Columbia medium (Example 5). Particulars: 75 mg/l, 48 h 37° C. The protocol: as §1, §2
Series [7] has as its system Yersinia enterocolitica 7605019. Kind of series: Peptidase detection on Columbia medium (Example 5). Particulars: 75 mg/l, 48 h 37° C. As for the experimental part:
as §1, §2

For the next series, the system named is Candida albicans 0801025. Kind of series: Peptidase detection on Columbia medium (Example 5). Particulars: 75 mg/l, 48 h 37° C. The protocol: as §1, §2
In series [8] the test system is Enterococcus faecium 0610021. The series is described as follows: Peptidase detection on Columbia medium (Example 5). Particulars: 75 mg/l, 48 h 37° C. The protocol:
as §1, §2

Series [9] concerns Providencia rettgeri 0706064. Kind of series: Peptidase detection on Columbia medium (Example 5). Particulars: 75 mg/l, 48 h 37° C. As for the experimental part:
as §1, §2

Series [10] deals with Staphylococcus aureus 7811049. The series is described as follows: Peptidase detection on Columbia medium (Example 5). Particulars: 75 mg/l, 48 h 37° C. As for the experimental part: as §1, §2
The test system of series [11] is Klebsiella pneumoniae 0008009. Kind of series: Peptidase detection on Columbia medium (Example 5). Particulars: 75 mg/l, 48 h 37° C. As for the experimental part:
as §1, §2

The subject of the next series is Escherichia coli 0002005. Kind of series: Peptidase detection on Columbia medium (Example 5). Particulars: 75 mg/l, 48 h 37° C. As for the experimental part:
as §1, §2

The test system of series [12] is Acinetobacter baumannii 0604029. The series is described as follows: Peptidase detection on Columbia medium (Example 5). Particulars: 75 mg/l, 48 h 37° C. The protocol: as §1, §2
In series [13] the test system is Staphylococcus epidermidis 0203050. Kind of series: Peptidase detection on Columbia medium (Example 5). Particulars: 75 mg/l, 48 h 37° C. The protocol:
as §1, §2

Series [14] concerns Salmonella ser. Typhimurium 0801029. The series is described as follows: Peptidase detection on Columbia medium (Example 5). Particulars: 75 mg/l, 48 h 37° C. As for the experimental part: as §1, §2
Series [15] has as its system Streptococcus pyogenes 9806380. The series is described as follows: Peptidase detection on Columbia medium (Example 5). Particulars: 75 mg/l, 48 h 37° C. The protocol:
as §1, §2

Series [16] deals with Staphylococcus aureus NCTC 11 939. Kind of series: Peptidase detection on Columbia medium (Example 2). Particulars: 40 mg in 400 ml Columbia; 24 h 37° C. On the set-up: key to Growth: NG: No growth; 0.5: weak growth; 1: moderate growth; 2: good growth; key to Fluo. / Color / Color post-acid.: —: no color.
Protocol: (§3) The 6 media were distributed into Petri dishes 90 mm in diameter, in a proportion of 20 ml per dish.
(§4) Seventeen strains of microorganisms stemming from collections and belonging to various species of bacteria and yeasts are inoculated in spots of approximately 10 000 colony-forming units.
(§5) The media are incubated for 24 hours at 37° C., and then the colonies formed are examined visually, with or without the addition of acid and under a UV lamp at 365 nm.
Series [17] relates to Escherichia coli NCTC 10 418. Kind of series: Peptidase detection on Columbia medium (Example 2). More on the design: key to Growth: NG: No growth; 0.5: weak growth; 1: moderate growth; 2: good growth. Particulars: 40 mg in 400 ml Columbia; 24 h 37° C.
Protocol: as §3, §4, §5
In series [18] the test system is Candida glabrata NCPF 3 943. Kind of series: Peptidase detection on Columbia medium (Example 2). More on the design: key to Growth: NG: No growth; 0.5: weak growth; 1: moderate growth; 2: good growth; key to Fluo. / Color / Color post-acid.: —: no color. Particulars: 40 mg in 400 ml Columbia; 24 h 37° C.
Protocol: as §3, §4, §5
Series [19] has as its system Listeria monocytogenes NCTC 11 994. Kind of series: Peptidase detection on Columbia medium (Example 2). More on the design: key to Growth: NG: No growth; 0.5: weak growth; 1: moderate growth; 2: good growth; key to Fluo. / Color / Color post-acid.: —: no color. Particulars: 40 mg in 400 ml Columbia; 24 h 37° C.
Protocol: as §3, §4, §5
Series [20] concerns Enterococcus faecium NCTC 7 171. The series is described as follows: Peptidase detection on Columbia medium (Example 2). Particulars: 40 mg in 400 ml Columbia; 24 h 37° C. More on the design: key to Growth: NG: No growth; 0.5: weak growth; 1: moderate growth; 2: good growth; key to Fluo. / Color / Color post-acid.: —: no color.
Protocol: as §3, §4, §5
Series [21] deals with Staphylococcus epidermidis NCTC 11 047. Kind of series: Peptidase detection on Columbia medium (Example 2). On the set-up: key to Growth: NG: No growth; 0.5: weak growth; 1: moderate growth; 2: good growth; key to Fluo. / Color / Color post-acid.: —: no color. Particulars: 40 mg in 400 ml Columbia; 24 h 37° C.
Protocol: as §3, §4, §5
For series [22], the system named is Enterococcus faecalis NCTC 775. The series is described as follows: Peptidase detection on Columbia medium (Example 2). More on the design: key to Growth: NG: No growth; 0.5: weak growth; 1: moderate growth; 2: good growth. Particulars: 40 mg in 400 ml Columbia; 24 h 37° C.
Protocol: as §3, §4, §5
The test system of series [23] is Salmonella typhimurium NCTC 74. Kind of series: Peptidase detection on Columbia medium (Example 2). On the set-up: key to Growth: NG: No growth; 0.5: weak growth; 1: moderate growth; 2: good growth. Particulars: 40 mg in 400 ml Columbia; 24 h 37° C.
Protocol: as §3, §4, §5
The subject of series [24] is Yersinia enterocolitica NCTC 11 176. Kind of series: Peptidase detection on Columbia medium (Example 2). On the set-up: key to Growth: NG: No growth; 0.5: weak growth; 1: moderate growth; 2: good growth. Particulars: 40 mg in 400 ml Columbia; 24 h 37° C.
Protocol: as §3, §4, §5

`Nc1ccc(C=Cc2ccnc3ccccc23)cc1`: the toxicity entry in series [1] is “does not exhibit any particular toxicity”.
As for `C[C@H](N)C(=O)Nc1ccc(C=Cc2cc[n+](C)c3ccccc23)cc1.Cl.[Cl-]` [L-alanyl-4-(4′-amidostyryl)-N-methylquinolinium (dichloride)], the Color result is on record as “orange” in series [2]; “orange” in [3]; “orange” in series [4]; “−” in [5]; “orange” in series [6]; “orange” in series [7]. Moreover, the Color entry in the series with Candida albicans 0801025 was “−”; in series [8], “−”; in series [9] it was “orange”; in series [10], “orange”; in series [11], “orange”; with Escherichia coli 0002005, “orange”. For the same compound, the Color result is recorded as “orange” in [12], “orange” in series [13], “−” in series [14] and “orange” in series [15]. The Coloration strength entry in [2] is given as “+”; in series [3], “++”; in series [4], “++”; in series [5] it was “−”; in series [6] it was “++”; in series [7], “++”. Also, the Coloration strength entry with Candida albicans 0801025 is given as “−”; in series [8] it was “−”; in series [9] it was “++”; in series [10], “+”; in series [11], “++”; in the series with Escherichia coli 0002005, “++”. Further, the Coloration strength result was “++” in series [12], “+” in series [13], “−” in series [14] and “+” in series [15]. Besides, the Growth entry in series [2] (control C: +) is listed as “+”; in series [3] (control C: ++), “++”; in series [4] (control C: ++), “++”; in [5] (control C: ++) it was “++”; in series [6] (control C: +), “+”; in series [7] (control C: +), “+”. Also, the Growth result was “++” in the series on Candida albicans 0801025 (control C: ++); “+” in [8] (control C: +); “++” in series [9] (control C: ++); “++” in series [10] (control C: ++); “++” in [11] (control C: ++); “++” in the series with Escherichia coli 0002005 (control C: ++). Further, the Growth result was “++” in series [12] (control C: ++), “++” in series [13] (control C: ++), “++” in [14] (control C: ++) and “+” in series [15] (control C: +).
Consider `C[C@H](N)C(=O)N[C@@H](C)C(=O)N[C@@H](C)C(=O)Nc1ccc(C=Cc2cc[n+](C)c3ccccc23)cc1.Cl.[Cl-]` [Tri-Ala-ASQM^+, L-alanyl-L-alanyl-L-alanyl-4-(4′-amidostyryl)-N-methylquinolinium (dichloride)], for which the Color entry is given as “—” in series [16]; “Orange” in [17]; “—” in [18]; “—” in series [19]; “—” in [20]; “—” in [21]. Besides, in [23], the Color result is on record as “Orange”. For the same compound, the Growth in [16], in series [17], in series [18], in [19], in [20] and in [21] was 2 in each case. The Growth in series [22], in series [23] and in series [24] was 2 each time.
